Experiments:
duplex DNA = conditions: published data; cited from earlier work
calf thymus DNA (Z-DNA) = assay: Permanganate oxidation of calf thymus Z-DNA (NaCl) incubated with intercalators; conditions: for Level of oxidation (induced by chemical) Net A420 nm: Z-DNA (NaCl), Expt minus Control, 2 min-1 h; for Level of oxidation (induced by chemical) Net A420 nm / ΔA420 nm (2 min-1 h) (Expt): 35° C.; for ΔA420 nm (2 min-1 h) (Expt): calf thymus DNA + NaCl + intercalator 6.3 nmol + KMnO4
Procedure: The intercalator (10 μl, […]) was incubated with the solution containing calf thymus DNA (5 μl, 8.27 μg) and NaCl (600 μl, 5M NaCl solution) in water (355 μl) at 40° C. for 1 h. The reaction mixture was treated with KMnO4 (30μ of 10 mM solution) and maintained at 35° C. for 60 min. The absorbance at 420 nm was obtained at 2 min and 60 min by Cary 300 spectrophotometer (Varian Inc.). The level of oxidation was based on the absorbance at A420 nm of the experiment and control (without DNA) experiments as described in the experimental section. Four intercalators (with published data on unwinding degree) were used in the experiment: doxorubicin (10°), daunomycin (12°), 9-aminoacridine (17°) and ethidium bromide (28°); and
Due to limited information about the degree of unwinding of intercalators, only four intercalators with different degree of unwinding were employed in the experiment: doxorubicin (10°), daunorubicin (12°), 9-aminoacridine (17°) and ethidium bromide (28°). The Z-DNA samples were mixed in equal amounts of intercalators and the reactions were carried out under identical conditions. Calf thymus DNA (5 μl, 8.27 μg) was incubated with NaCl (600 μl, SM NaCl solution), the DNA binding agent or intercalator (10 μl, 6.3 nmol) in distilled H2O (355 μl). 4 non-sequence specific intercalators were used in the model study: doxorubicin, daunorubicin, 9-aminoacridine and ethidium bromide. The reaction mixture was gently mixed on shaker at 40° C. for 1 h. After incubation time, KMnO4 (30 μl) was added to the reaction mixture and the resulting mixture was transferred to the quartz cuvette and the absorbance (420 nm) was obtained at 35° C. for 2- and 60-min time-points. The level of oxidation induced by intercalator is based on the net absorbance and calculated as follows:
Net A420 nm=[A420 nm of the Expt (60 min)−A420 nm of the Expt (2 min)]−[A420 nm of the Control (60 min)−A420 nm of the Control (2 min)]
Where Net A420 nm represents the level of oxidation of the DNA-chemical adduct.
The Expt=calf thymus DNA+NaCl+DNA binding agent+KMnO4
The Control=DNA binding agent+KMnO4.
The control experiment (without DNA binding agent) was treated under identical conditions as described above.

Structure (SMILES) | degree of unwinding (duplex DNA) [°] | Level of oxidation (induced by chemical) Net A420 nm (calf thymus DNA (Z-DNA)) [arbitrary unit] | rate of permanganate oxidation (kinetic data) (calf thymus DNA (Z-DNA); Z-DNA incubated with intercalator, ranking among the four intercalators) | ΔA420 nm (2 min-1 h) (Expt) (calf thymus DNA (Z-DNA))
COc1cccc2c1C(=O)c1c(O)c3c(c(O)c1C2=O)C[C@@](O)(C(=O)CO)C[C@@H]3O[C@H]1C[C@H](N)[C@H](O)[C@H](C)O1 [doxorubicin] | 10 | 0.1029 | fastest | 0.1427
COc1cccc2c1C(=O)c1c(O)c3c(c(O)c1C2=O)C[C@@](O)(C(C)=O)C[C@@H]3O[C@H]1C[C@H](N)[C@H](O)[C@H](C)O1 [daunorubicin] | 12 | 0.0957 | – | 0.1670
Nc1c2ccccc2nc2ccccc12 [9-aminoacridine] | 17 | 0.0726 | – | 0.1327

From patent US20040234992A1, “Method of detection of conformational change in a nucleic acid duplex by treatment with oxidising or reactive agent as a result of exposure to environmental or chemical conditions” (priority 2001, published 2004)
